Read-outs that look alike come from different tables or passages of the source.
Legend:
human TLR7 = target: T1, human TLR7 (Homo sapiens, UniProt Q9NYK1); assay: In vitro human TLR7 binding reporter assay (HEK-Blue, NF-kB/AP1-inducible SEAP); type: cell-based; conditions: HEK-Blue human TLR7 SEAP reporter cells; activity range classes; read-out: TLR7 Agonist EC50
T1 construct: host or cells: human HEK-Blue cells (HEK293-derived) co-expressing TLR7 and an NF-kB/AP1-inducible SEAP reporter
T1 sequence (Q9NYK1 27-1049): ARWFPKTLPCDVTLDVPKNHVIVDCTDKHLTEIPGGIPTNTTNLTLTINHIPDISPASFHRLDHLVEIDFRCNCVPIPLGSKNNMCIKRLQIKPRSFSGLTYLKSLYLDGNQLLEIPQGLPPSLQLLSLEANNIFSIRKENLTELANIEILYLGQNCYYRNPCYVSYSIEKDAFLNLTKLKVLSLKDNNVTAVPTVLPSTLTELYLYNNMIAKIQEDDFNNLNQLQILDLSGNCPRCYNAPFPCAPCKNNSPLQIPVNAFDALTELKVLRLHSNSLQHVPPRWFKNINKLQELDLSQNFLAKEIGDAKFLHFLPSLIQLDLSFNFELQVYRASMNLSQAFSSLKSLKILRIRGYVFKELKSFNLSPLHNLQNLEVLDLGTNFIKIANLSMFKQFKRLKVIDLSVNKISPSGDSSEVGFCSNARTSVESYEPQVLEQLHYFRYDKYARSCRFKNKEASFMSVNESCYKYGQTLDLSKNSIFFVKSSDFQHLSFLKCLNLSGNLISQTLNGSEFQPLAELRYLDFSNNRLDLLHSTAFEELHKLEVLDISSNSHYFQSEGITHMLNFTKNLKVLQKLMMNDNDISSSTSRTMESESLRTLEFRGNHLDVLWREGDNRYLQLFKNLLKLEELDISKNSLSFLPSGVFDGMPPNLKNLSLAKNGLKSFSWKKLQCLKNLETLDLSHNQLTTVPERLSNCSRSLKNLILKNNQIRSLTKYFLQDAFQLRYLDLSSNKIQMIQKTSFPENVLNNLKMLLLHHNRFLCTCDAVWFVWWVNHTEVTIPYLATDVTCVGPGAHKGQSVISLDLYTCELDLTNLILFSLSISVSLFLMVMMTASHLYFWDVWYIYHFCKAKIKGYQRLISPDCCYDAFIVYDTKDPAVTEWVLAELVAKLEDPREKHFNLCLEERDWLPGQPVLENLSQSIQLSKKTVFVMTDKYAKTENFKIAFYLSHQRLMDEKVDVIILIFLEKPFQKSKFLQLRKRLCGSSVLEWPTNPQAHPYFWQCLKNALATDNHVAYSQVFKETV
Procedure, shortened: (§1)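 HEK-Blue cells expressing human TLR7 or TLR8 with NF-kB/AP1-inducible SEAP reporter, plated 24 h, then compound-treated 18 h at 37° C, 5% CO2. EC50 normalized to 100% Ymax set by 50 μM reference standard.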

[1] = tested on: IL-1β production in PMA-differentiated THP-1 cells; assay: Measurement of IL-1β production in PMA-differentiated THP-1 cells (ELISA, 4 hours); type: cell-based, human; conditions: assayed using one or more of the described procedures, read-out: NLRP3 hIL1B IC50
Procedure, shortened: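 THP-1 cells differentiated with PMA (10 μg/ml, 24 h), replated at 1×10^6 cells/ml in RPMI with 2% FBS and exposed to compounds (e.g. 0.1–100 μM, 1% DMSO final) for 4 hours. IL-1β in cell-free supernatant quantified by ELISA against vehicle control.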

human TLR8 = target: T2, human TLR8 (Homo sapiens, UniProt Q9NR97); assay: In vitro human TLR8 binding reporter assay (HEK-Blue, NF-kB/AP1-inducible SEAP); type: cell-based; conditions: HEK-Blue human TLR8 SEAP reporter cells; activity range classes; read-out: TLR8 Agonist EC50
T2 construct: host or cells: human HEK-Blue cells (HEK293-derived) co-expressing TLR8 and an NF-kB/AP1-inducible SEAP reporter
T2 sequence (Q9NR97 27-1041): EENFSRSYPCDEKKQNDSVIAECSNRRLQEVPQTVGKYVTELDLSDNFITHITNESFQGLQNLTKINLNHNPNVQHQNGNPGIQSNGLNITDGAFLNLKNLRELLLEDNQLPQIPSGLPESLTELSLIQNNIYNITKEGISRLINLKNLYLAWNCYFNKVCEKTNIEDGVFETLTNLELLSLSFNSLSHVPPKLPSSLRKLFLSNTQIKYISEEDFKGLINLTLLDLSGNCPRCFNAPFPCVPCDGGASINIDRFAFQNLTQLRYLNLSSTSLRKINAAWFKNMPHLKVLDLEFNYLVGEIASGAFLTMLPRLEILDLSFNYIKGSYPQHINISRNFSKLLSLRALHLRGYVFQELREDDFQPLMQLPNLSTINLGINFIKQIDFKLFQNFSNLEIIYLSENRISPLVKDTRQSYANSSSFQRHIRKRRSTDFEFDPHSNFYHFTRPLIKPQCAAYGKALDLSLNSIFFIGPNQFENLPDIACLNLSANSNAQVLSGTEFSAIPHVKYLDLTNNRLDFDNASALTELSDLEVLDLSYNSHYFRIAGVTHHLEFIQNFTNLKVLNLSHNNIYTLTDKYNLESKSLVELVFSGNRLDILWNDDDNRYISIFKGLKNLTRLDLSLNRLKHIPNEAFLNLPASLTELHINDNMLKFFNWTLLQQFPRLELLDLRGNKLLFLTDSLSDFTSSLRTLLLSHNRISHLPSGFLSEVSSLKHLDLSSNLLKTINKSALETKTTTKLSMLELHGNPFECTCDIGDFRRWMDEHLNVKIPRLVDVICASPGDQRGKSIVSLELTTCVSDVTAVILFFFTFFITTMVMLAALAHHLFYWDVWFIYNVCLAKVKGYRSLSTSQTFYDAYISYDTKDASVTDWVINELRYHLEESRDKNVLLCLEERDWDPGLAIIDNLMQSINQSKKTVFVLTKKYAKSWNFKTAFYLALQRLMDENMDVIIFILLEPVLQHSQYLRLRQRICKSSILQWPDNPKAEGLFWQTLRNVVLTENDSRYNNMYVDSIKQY
Procedure, shortened: as §1

[2] = Homo sapiens, THP-1, human IL-1β production

SMILES | EC50 (human TLR7) | IC50 [1, 2] | EC50 (human TLR8) | IC50 ([1]; human IL-1β production)
Nc1cc(NCc2cncnc2)c2ccc(-c3ccn[nH]3)cc2n1 [Compound 317] | > 100 µM | 690 nM | > 100 µM | –
CCN(CCCCc1cc2ccc(-c3cc[nH]n3)cc2nc1N)C(C)=O [Compound 111] | > 100 µM | 2460 nM | > 100 µM | –
Nc1cc(OCCO)c2ccc(-c3ccn[nH]3)cc2n1 [Compound 178, 2-((2-amino-7-(1H-pyrazol-5-yl)quinolin-4-yl)oxy)ethan-1-ol] | > 100 µM | 700 nM | > 100 µM | –
Nc1nc2cc(-c3ccn[nH]3)ccc2cc1-c1ccc2[nH]ncc2c1 [Compound 127] | > 100 µM | 1150 nM | > 100 µM | –
Nc1cc(NCc2cccnc2)c2ccc(-c3ccn[nH]3)cc2n1 [Compound 150] | > 100 µM | 220 nM | > 100 µM | –
CS(=O)(=O)Nc1cccc(CNc2cc(N)nc3cc(-c4ccn[nH]4)ccc23)c1 [Compound 257] | > 100 µM | 680 nM | > 100 µM | –
CS(=O)(=O)NCCCNc1cc(N)nc2cc(-c3ccn[nH]3)ccc12 [Compound 215, N-(3-((2-amino-7-(1H-pyrazol-5-yl)quinolin-4-yl)amino)propyl)methanesulfonamide] | > 100 µM | 1940 nM | > 100 µM | –
Nc1cc(NCCCNC(=O)c2ccncc2)c2ccc(-c3ccn[nH]3)cc2n1 [Compound 211] | > 100 µM | 13500 nM | > 100 µM | –
Nc1nc2cc(-c3cc[nH]n3)ccc2cc1CCCCO [Compound 102, 4-[2-amino-7-(1H-pyrazol-3-yl)quinolin-3-yl]butan-1-ol] | > 100 µM | 1380 nM | > 100 µM | –
Nc1cc(NCCC(=O)N2CCOCC2)c2ccc(-c3ccn[nH]3)cc2n1 [Compound 350, 3-((2-amino-7-(1H-pyrazol-5-yl)quinolin-4-yl)amino)-1-morpholinopropan-1-one] | > 100 µM | 4190 nM | > 100 µM | –
Nc1cc(NCCc2cccnn2)c2ccc(-n3cccn3)cc2n1 [Compound 343, 7-(1H-pyrazol-1-yl)-N4-(2-(pyridazin-3-yl)ethyl)quinoline-2,4-diamine] | > 100 µM | 610 nM | > 100 µM | –
Nc1cc(NCCc2cc[nH]n2)c2ccc(-c3ccn[nH]3)cc2n1 [Compound 261] | > 100 µM | 140 nM | > 100 µM | –
Nc1cc(OCC2(CO)CCC2)c2ccc(-c3ccsc3)cc2n1 [Compound 336] | > 100 µM | 2030 nM | > 100 µM | –
Nc1nc2cc(-c3ccn[nH]3)ccc2cc1CN1CCOCC1 [Compound 115] | > 100 µM | 3040 nM | > 100 µM | –
CS(=O)(=O)CCNc1cc(N)nc2cc(-n3cccn3)ccc12 [Compound 305] | > 100 µM | 640 nM | > 100 µM | –
Nc1cc(N2CC[C@@H](O)C2)c2ccc(-c3ccn[nH]3)cc2n1 [Compound 143] | > 100 µM | 5810 nM | > 100 µM | –
Nc1cc(OCCCCN2CCS(=O)(=O)CC2)c2ccc(-c3ccn[nH]3)cc2n1 [Compound 180] | > 100 µM | 9720 nM | > 100 µM | –
Cn1nccc1CNc1cc(N)nc2cc(-c3ccn[nH]3)ccc12 [Compound 242] | > 100 µM | 2350 nM | > 100 µM | –
COCCNc1cc(N)nc2cc(-c3ccn[nH]3)ccc12 [Compound 255] | > 100 µM | 270 nM | > 100 µM | –
Nc1cc(OCCCO)c2ccc(-c3ccn[nH]3)cc2n1 [Compound 179] | > 100 µM | 780 nM | > 100 µM | –
Nc1cc(NCc2cnco2)c2ccc(-c3ccn[nH]3)cc2n1 [Compound 230] | > 100 µM | 540 nM | > 100 µM | –
Nc1cc(OCCN2CCNC2=O)c2ccc(-c3ccn[nH]3)cc2n1 [Compound 198] | > 100 µM | 11400 nM | > 100 µM | –
Nc1cc(N[C@H]2CCCC[C@H]2O)c2ccc(-c3ccn[nH]3)cc2n1 (racemic) [Compound 157] | > 100 µM | – | > 100 µM | 730 nM
Nc1cc(OCCc2ccsc2)c2ccc(-c3cccs3)cc2n1 [Compound 330] | > 100 µM | 24600 nM | > 100 µM | –
Nc1cc(N[C@H]2CCCNC2)c2ccc(-c3ccn[nH]3)cc2n1 [Compound 324] | > 100 µM | 1760 nM | > 100 µM | –
Nc1cc(NCc2cnc[nH]2)c2ccc(-n3cccn3)cc2n1 [Compound 307] | > 100 µM | 110 nM | > 100 µM | –
Nc1cc(NCCCc2cccnc2)c2ccc(-c3ccn[nH]3)cc2n1 [Compound 238] | > 100 µM | 1490 nM | > 100 µM | –
Nc1cc(NCCCO)c2cc(F)c(-c3ccn[nH]3)cc2n1 [Compound 318, 3-((2-amino-6-fluoro-7-(1H-pyrazol-5-yl)quinolin-4-yl)amino)propan-1-ol] | > 100 µM | 70 nM | > 100 µM | –

— patent US12171756B2, “NLRP3 modulators” (Innate Tumor Immunity, Inc., priority 2017, dated 2024)
